Test results as given in publication PMC3465347, “Regulation of NF-κB Activation through a Novel PI-3K-Independent and PKA/Akt-Dependent Pathway in Human Umbilical Vein Endothelial Cells” (PLoS ONE, 2012).
“Also recorded” adds a separate entry of the source.

How the values were obtained:
[1] = Aqueous solubility of MPG derivatives; assay type: physicochemical
Protocol: Stock solutions of MPG and its derivatives (Tables S1, S2, S3) were prepared either in dimethylsulphoxide (DMSO) or cell culture medium. MPG and its derivatives were diluted to working concentrations in cell culture medium.

[2] = tested on: TNF-α-induced VCAM-1 expression on human endothelial cells; assay: Cell-ELISA for VCAM-1 expression; assay type: cell-based; conditions: added 2–4 h prior to TNF-α stimulation; data not shown
Protocol: (§1) The endothelial cells were incubated with or without MPG and its derivatives at various concentrations for 2 h followed by treatment with TNF-α (10 ng/ml) for 16 h for ICAM-1 and VCAM-1 expression and 4 h for E-selectin expression. A Cell-ELISA was used to assess the expression of ICAM-1, VCAM-1 and E-selectin on the surface of endothelial cells as described previously.

[3] = tested on: TNF-α-induced E-selectin expression on human endothelial cells; assay: Cell-ELISA for E-selectin expression; assay type: cell-based; conditions: added 2–4 h prior to TNF-α stimulation; data not shown
Protocol: as §1

[4] = tested on: VCAM-1 mRNA in endothelial cells; assay: RT-PCR of VCAM-1 transcript; assay type: cell-based, human; conditions: 400 µM pretreatment, TNF-α 10 ng/ml 4 h
Protocol: (§2) In order to examine whether MPTAG reduced the mRNA transcript levels of cell adhesion molecules genes, the endothelial cells were pretreated with 400 µM MPTAG for 2 h before induction with TNF-α for 4 h followed by RT-PCR. RNA was isolated from MPTAG-treated cells according to a modified guanidinium thiocyanate procedure. The expression of the transcripts for ICAM-1, VCAM-1 and E-selectin was evaluated by RT-PCR [45]. β-Actin levels expressed under similar conditions were used as a loading control.

[5] = tested on: E-selectin mRNA in endothelial cells; assay: RT-PCR of E-selectin transcript; assay type: cell-based, human; conditions: 400 µM pretreatment, TNF-α 10 ng/ml 4 h
Protocol: as §2

[6] = tested on: NF-κB DNA-binding activity in HUVECs; assay: NF-κB activation assay (EMSA) in nuclear extracts; assay type: cell-based, human
Protocol: The endothelial cells were subjected to the indicated treatments followed by induction with TNF-α for indicated time points or 30 mins. The cells were then washed with PBS and dislodged using a cell scraper. The cytoplasmic and nuclear extracts were prepared as described previously, [46].
NF-κB activation in the nuclear extracts of human endothelial cells was assessed by electrophoretic mobility shift assay (EMSA) as described previously, [46]. For supershift experiment, nuclear extracts prepared from unstimulated and TNF-α-stimulated cells were incubated with antibodies against the p50 or p65 subunit of NF-κB or -α-tubulin for 15 mins at 37°C before the complex was analyzed by EMSA. Addition of equal amount of radioactive-labelled probe to all the samples was indicated by the similar intensity of the unincorporated probe observed towards the end of the gel.

[7] = tested on: NF-κB-dependent reporter gene transcription in HUVECs; assay: NF-κB reporter gene assay (luciferase); assay type: cell-based, human; conditions: 400 µM, TNF-α 10 ng/ml
Protocol: NF-κB dependent reporter gene transcription was measured as per the instructions of the luciferase assay kit (Promega, USA). Briefly, human endothelial cells ([…]) were plated in 96-well plates. HUVECs were transiently transfected by electroporation with a NF-κB-containing luciferase reporter gene plasmid for 24 h. After transfection, cells were washed and treated with 400 µM MPTAG for 24 h. For the TNF-α stimulation, cells were treated with 10 ng/ml of TNF-α for another 24 h. Supernatants after cell lysis were assayed for luciferase activity. The mean value for cells treated with no MPTAG and no TNF-α was set to 1, and -fold differences were determined by comparing values against this set value. Cells were co-transfected with a control vector expressing β-galactosidase under SV40 promoter to normalize transfection efficiency.

[8] = tested on: IκBα in endothelial cells; assay: IκBα phosphorylation and degradation western blot; assay type: cell-based, human; conditions: 400 µM, TNF-α 30 mins
Protocol: (§3) Nuclear and cytoplasmic extracts were fractionated on SDS-PAGE with equal amount of proteins per well and transferred onto PVDF membranes and those membranes were incubated with appropriate primary antibodies and treated with HRP conjugated secondary antibodies followed by detection with DAB-H2O2 system. β-tubulin, α-actin and Lamin B1 were used as loading controls. Antibodies against NF-κBp65, phosphoNF-κBp65, IκBα, phosphoIκBα, IKK-β, Akt, phosphoAkt (Ser473) and phosphoAkt (Thr308) were used.

[9] = tested on: association of Akt with IKK-β; assay: Akt/IKK-β association (co-immunoprecipitation); assay type: cell-based, human; conditions: dose-dependent and time-dependent
Protocol: In brief, confluent HUVECs were incubated with or without MPTAG and were stimulated with TNF-α (10 ng/ml) for 15 mins. The cells were washed and lysed in Lysis buffer containing 50 mM HEPES, pH 7.6, 10% glycerol, 1 mM sodium orthovanadate, 100 mM NaCl, 1% NP-40, 1 mM EDTA and protease inhibitor cocktail and allowed to swell on ice for 45 mins. Following centrifugation at 13,000 rpm for 45 mins, the supernatants were collected as “total cell extracts” and stored at −70°C. Immunoprecipitation was performed as per the instructions of Protein G immunoprecipitation kit (Sigma Aldrich, USA). Endogenous IKK complexes were immunoprecipitated in the following reaction mixtures: 100–300 µg of total cell extracts were incubated with 2–4 µg anti-IKK-β or PKAα antibody in 100 µl 1× IP buffer. After incubation for 16 h at 4°C with constant shaking, 50 µl of activated protein G beads were added and the mixture was incubated under rotation for an additional 3 h at 4°C.
as §3, with “Antibodies against NF-κBp65, phosphoNF-κBp65, IκBα, phosphoIκBα, IKK-β, Akt, phosphoAkt (Ser473) and phosphoAkt (Thr308) were used.” left out

[10] = tested on: ERK1/2; assay: ERK1/2 activation western blot; assay type: cell-based, human; conditions: MPTAG pretreatment
[11] = tested on: PI-3K; assay: PI-3K activity assay; assay type: cell-based, human; conditions: pretreatment, HUVECs
Source text: The catalytic domain of PI-3K was immunoprecipitated from the stimulated and unstimulated endothelial in presence and absence of various compound treatment using an anti-p85α (N-18) antibody. The immunoprecipated proteins were subjected to kinase activity assay using a PI substrate, diC8 followed by detection of the PI(3)P as per the instructions of the Class III PI-3kinase kit (Echelon, USA).

[12] = biological target: T1, PKA (Homo sapiens, UniProt P17612); assay: PKA activity assay; assay type: cell-based
T1 construct: PKA was immunoprecipitated from the total cell lysates of unstimulated and TNF-α-stimulated endothelial cells; endogenous in cells; host or cells: HUVEC (treated with MPTAG, SQ 22536, H-89 ± TNF-α), anti-PKAα immunoprecipitate
Source text: PKA was immunoprecipitated from the total cell lysates of unstimulated and TNF-α-stimulated endothelial cells in presence and absence of treatment with agents indicated in Figure 7 using anti-PKAα (W-18) antibody. The immunoprecipates were subjected to kinase activity assay using a Bisamide Rhodamine 110 peptide substrate as per the instructions of the Profluor PKA assay kit (Promega, USA).

water solubility [1]: completely water soluble | TNF-α-induced NF-κB activation (EMSA), H-89 treatment preceding MPTAG ([6]; H-89 then MPTAG, TNF-α): remained increased | TNF-α-induced NF-κB activation (EMSA), MPTAG treatment preceding H-89 ([6]; MPTAG then H-89, TNF-α): inhibited | basal NF-κB activation ([6]; without TNF-α stimulation): no significant inhibitory effect | TNF-α-induced NF-κB activation (EMSA) in presence or absence of wortmannin ([6]; wortmannin before MPTAG, then TNF-α): inhibited similarly | NF-κB-regulated luciferase activity [7]: significantly inhibited | PKA activity in unstimulated HUVECs, MPTAG and SQ 22536 added together ([12]; MPTAG + SQ 22536): remained increased | PKA activity in TNF-α-stimulated HUVECs ([12]; MPTAG alone or together with SQ 22536): restored PKA activity
Compound: CC(=O)OC[C@H]1O[C@@H](Oc2c(C)occc2=O)[C@H](OC(C)=O)[C@@H](OC(C)=O)[C@@H]1OC(C)=O [MPTAG, 2-methyl-pyran-4-one-3-O-β-D-2′,3′,4′,6′-tetra-O-acetyl glucopyranoside]
inhibition of VCAM-1 [2]: maximum inhibition | inhibition of E-selectin [3]: maximum inhibition | TNF-α-induced VCAM-1 mRNA level [4]: significantly reduced | TNF-α-induced E-selectin mRNA level [5]: significantly reduced | TNF-α-induced NF-κB DNA-binding activity / NF-κB activation (EMSA) ([6]; MPTAG 400 µM, dose-dependent): almost complete inhibition; also recorded: significantly inhibited | TNF-α-induced degradation of IκBα [8]: inhibited | TNF-α-induced phosphorylation of IκBα [8]: inhibited | TNF-α-induced association of Akt with IKK-β [9]: significantly prevented | TNF-α-induced ERK activation [10]: no effect | TNF-α-induced PI-3K activity [11]: no effect
